Patent publication US5840725A, “Substituted oximes, hydrazones and olefins as neurokinin antagonists” (Schering Corporation, priority 1997, dated 1998)
Read-outs that look alike come from different tables or passages of the source.

Legend:
[1] = target: T1, human neurokinin 2 (NK2) receptor (Homo sapiens, UniProt P21452); assay: Neurokinin Receptor Binding Assay, NK2; details: for inhibition at 1 µM: read-out: % Inhibition NK2 (1 μM dose)
T1 construct: expressed in transfected cells; host or cells: Chinese Hamster ovary (CHO) cells
T1 sequence (P21452 1-398): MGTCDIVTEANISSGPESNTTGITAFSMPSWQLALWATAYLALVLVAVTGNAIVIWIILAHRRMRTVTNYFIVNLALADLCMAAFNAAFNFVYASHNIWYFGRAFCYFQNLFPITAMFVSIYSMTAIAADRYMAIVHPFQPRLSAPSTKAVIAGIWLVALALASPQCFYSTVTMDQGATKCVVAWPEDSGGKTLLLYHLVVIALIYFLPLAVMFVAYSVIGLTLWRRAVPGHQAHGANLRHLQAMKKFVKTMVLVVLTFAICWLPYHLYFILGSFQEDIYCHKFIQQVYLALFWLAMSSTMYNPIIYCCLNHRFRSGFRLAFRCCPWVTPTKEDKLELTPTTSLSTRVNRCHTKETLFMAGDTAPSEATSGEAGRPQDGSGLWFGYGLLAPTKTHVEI
Procedure: (§1) Neurokinin Receptor Binding Assay(s)
(§2) Chinese Hamster ovary (CHO) cells transfected with the coding regions for the human neurokinin 1 (NK1) of the human neurokinin 2 (NK2) receptors are grown in Dulbecco's minimal essential medium supplemented with 10% fetal calf serum, 0.1 mM non-essential amino acids, 2 mM glutamine, 100units/ml of penicillin and streptomycin, and 0.8 mg of G418/ml at 37° C. in a humidified atmosphere containing 5% CO2.
(§3) Cells are detached from T-175 flasks with a sterile solution containing 5 mM EDTA in phosphate buffered saline. Cells are harvested by centrifugation and washed in RPMl media at […] for 5 minutes. The pellet is resuspended inTris-HCl (pH7.4) containing 1 uM phsphoramidon and 4 ug/ml of chymostatin at a cell density of 30×10^6 cells/ml. The suspension is then homogenized in a Brinkman Polytron (setting 5) for 30-45 seconds. The homogenate is centrifuged at 800×g for 5 min at 4° C. to collect unbroken cells and nuclei. The supernatant is centrifuged in a Sorvall RC5C at 19,000 rpm ([…]) for 30 min at 4° C. The pellet is resuspended, an aliquot is removed for a protein determination (BCA) and washed again. The resulting pellet is stored at -80° C.
(§4) To assay receptor binding, 50 μl of [^3 H]-Substance P (9-Sar, 11 -Met) (specific activity 41 Ci/mmol) (Dupont-NEN) (0.8 nM for the NK-1 assay) or [^3 H]-Neurokinin A (specific activity 114 Ci/mmole) (Zenca) (1.0 nM for the NK-2 assay) is added to tubes containing buffer (50 mM Tris-HCl (pH 7.4) with 1 mM MnCl2 and 0.2% Bovine Serum Albumin) and either DMSO or test compound. Binding is initiated by the addition of 100 μl of membrane (10-20 μg) containing the human NK-1 or NK-2 receptor in a final volume of 200 μl. After 40 minutes at room temperature, the reaction is stopped by rapid filtration onto Whatman GF/C filters which have been presoaked in 0.3% polyethylenimine. Filters are washed 2 times with 3 ml of 50 mM Tris-HCl (pH7.4). Filters are added to 6 mIs of Ready-Safe liquid scintillation cocktail and quantified by liquid scintillation spectrometry in a LKB 1219 RackBeta counter. Non-specific binding is determined by the addition of either 1 μM of CP-99994 (NK-1) or 1 μM SR-48968 (NK-2) (both synthesized by the chemistry department of Schering-Plough Research Institute). IC50 values are determined from competition binding curves and Ki values are determined according to Cheng and Prusoff using the experimentally determined value of 0.8 nM for the NK-1 receptor and 2.4 nM for the NK-2 receptor.
(§5) % Inhibition is the difference between the percent of maximum specific binding (MSB) and 100%. The percent of MSB is defined by the following equation, wherein "dpm" is disintegrations per minute: [formula]

[2] = target: T2, human neurokinin 1 (NK1) receptor (Homo sapiens, UniProt P25103); assay: Neurokinin Receptor Binding Assay, NK1
T2 construct: expressed in transfected cells; host or cells: Chinese Hamster ovary (CHO) cells
T2 sequence (P25103 whole entry): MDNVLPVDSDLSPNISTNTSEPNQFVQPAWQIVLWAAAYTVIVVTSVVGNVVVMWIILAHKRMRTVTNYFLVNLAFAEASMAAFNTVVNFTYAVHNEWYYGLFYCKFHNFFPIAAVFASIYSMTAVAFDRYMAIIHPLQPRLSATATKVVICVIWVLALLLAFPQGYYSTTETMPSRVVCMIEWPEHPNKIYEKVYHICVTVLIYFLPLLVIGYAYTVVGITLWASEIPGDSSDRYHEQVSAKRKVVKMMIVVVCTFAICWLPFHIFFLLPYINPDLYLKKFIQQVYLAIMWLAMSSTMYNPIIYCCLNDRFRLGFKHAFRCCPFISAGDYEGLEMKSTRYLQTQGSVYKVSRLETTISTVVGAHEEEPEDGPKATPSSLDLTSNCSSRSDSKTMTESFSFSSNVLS
Procedure: as §1, §2, §3, §4, §5

NK3 = target: T3, NK3 (Homo sapiens, UniProt P29371); assay: NK3 activity (procedure similar to literature); type: binding
T3 sequence (P29371 1-465): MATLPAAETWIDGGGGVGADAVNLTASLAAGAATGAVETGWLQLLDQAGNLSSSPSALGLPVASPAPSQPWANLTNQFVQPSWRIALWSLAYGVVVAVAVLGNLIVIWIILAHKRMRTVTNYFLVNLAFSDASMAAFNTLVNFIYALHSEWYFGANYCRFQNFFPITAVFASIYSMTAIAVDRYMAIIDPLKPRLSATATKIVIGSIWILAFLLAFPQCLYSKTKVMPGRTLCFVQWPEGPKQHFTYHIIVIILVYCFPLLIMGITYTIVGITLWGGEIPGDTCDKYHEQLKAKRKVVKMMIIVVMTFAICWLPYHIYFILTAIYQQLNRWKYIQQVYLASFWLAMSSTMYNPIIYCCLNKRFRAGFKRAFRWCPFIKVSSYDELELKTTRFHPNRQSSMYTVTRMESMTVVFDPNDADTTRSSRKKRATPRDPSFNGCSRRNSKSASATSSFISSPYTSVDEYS
Procedure: NK3 activity is determined by following a procedure similar to that described in the literature, e.g., Molecular PharmacoL, 48 (1995), p. 711-716.

[3] = 1 μM dose, [3H]-Neurokinin A, CHO cell membranes
[4] = [3H]-Substance P, CHO cell membranes
[5] = [3H]-Substance P, CHO cell membranes, read-out: Ki (NK1)
[6] = [3H]-Neurokinin A, CHO cell membranes, read-out: Ki (NK2)

SMILES | inhibition at 1 µM [1, 3] [%] | inhibition at 1 µM [2, 4] [%] | Ki (NK3) [nM] | Ki [1] [nM] | inhibition at 1 µM [1] [%] | Ki [2] [nM] | Ki [2, 5] [nM] | Ki [1, 6] [nM]
OC1(c2ccccc2)CCN(CCC(C(COCc2cc(C(F)(F)F)cc(C(F)(F)F)c2)=NOCc2ccccc2)c2ccc(Cl)c(Cl)c2)CC1 (stereo not shown) [Example 1C] | 16 | 44 |  |  |  |  |  | 
CON=C(COCc1cc(C(F)(F)F)cc(C(F)(F)F)c1)C(CCN1CCC(O)(c2ccccc2)CC1)c1ccc(Cl)c(Cl)c1 (stereo not shown) [Example 1] |  | 88 | 109 | 20 | 95 | 25 |  | 
CCOC(=O)C=C(COCc1cc(C(F)(F)F)cc(C(F)(F)F)c1)C(CCN1CCC(O)(c2ccccc2)CC1)c1ccc(Cl)c(Cl)c1 (stereo not shown) [Example 2] | 17 | 69 |  |  |  |  | 40 | 
CN1CCN(N=C(COCc2cc(C(F)(F)F)cc(C(F)(F)F)c2)C(CCN2CCC(O)(c3ccccc3)CC2)c2ccc(Cl)c(Cl)c2)CC1 (stereo not shown) [Example 7] | 13 | 69 |  |  |  |  | 121 | 
CON=C(COCc1cccc(C)c1F)C(CCN1CCC(O)(c2ccccc2)CC1)c1ccc(Cl)c(Cl)c1 (stereo not shown) [Example 22AK] | 95 | 67 |  |  |  |  | 132 | 2
CON=C(COCc1noc(C(C)(C)C)n1)C(CCN1CCC(O)(c2ccccc2)CC1)c1ccc(Cl)c(Cl)c1 (stereo not shown) [Example 22AL] | 100 | 12 |  |  |  |  |  | 2
OCCN(CC=C(COCc1cc(C(F)(F)F)cc(C(F)(F)F)c1)C(CCN1CCC(O)(c2ccccc2)CC1)c1ccc(Cl)c(Cl)c1)CCO (stereo not shown) [Example 35C] | 0 | 93 |  |  |  |  | 2 | 
NC(CON=C(COCc1cc(C(F)(F)F)cc(C(F)(F)F)c1)C(CCN1CCC(N2CCCCC2)CC1)c1ccc(Cl)c(Cl)c1)=NO (stereo not shown) [Example 39F] | 96 | 93 |  |  |  |  | 4.3 | 12
CON=C(COCc1cc(C(F)(F)F)cc(C(F)(F)F)c1)C(CCN1CCC(C(=O)N2CCCC2)CC1)c1ccc(Cl)c(Cl)c1 (stereo not shown) [Example 42L] | 86 | 91 |  |  |  |  | 4.6 | 123
